“Also recorded” adds a separate entry of the source.
Tests used:
Type in all cases: cell-based
isolated rat adipocytes [1] = test: Incorporation of glucose carbon into triglyceride in cultured adipocytes
Procedure: Incorporation of Glucose Carbon into Triglyceride: To measure glucose incorporation into triglyceride, cultures are exposed to media containing 0.01 uCi/ml of ^14C-glucose. After 96 hr, media and extracellular lipid is removed from the well and methanol added. Then scrape the collagen-cell matrix from the well and transfer into a 50 ml glass tube. Rinse the well and scrape again in methanol to assure complete transfer of cells. Total triglycerides will be extracted using the Folch method (Folch, 1957). An aliquot of the lipid extract will be placed into vials containing scintillation fluid then radioactivity will be measured.
The first measurement is used to calculate the amount of glucose incorporated into triglycerides. Another aliquot of the lipid extract is placed into pre-weighed aluminum pans to determine the total amount of triglyceride per well. The remaining lipid is saponified and acidified to separate the glycerol and fatty acids. An aliquot of the lipid extract is placed into vials containing scintillation fluid and counted. This second count represents the ^14C-glucose incorporation into fatty acids. By subtraction, the amount that was incorporated into triglyceride though glycerol is also determined. Glucose incorporation into triglyceride and into the fatty acid portion of the triglyceride are calculated by multiplying disintegration per min by total ug of glucose/well over the total DPM/well.

isolated rat adipocytes [2] = test: Lactate production and proportion of glucose anaerobically metabolized to lactate in isolated cultured rat adipocytes
Procedure: (§1) Cell isolation/preparation: Adipocytes are prepared from epididymal fat pads from male Sprague-Dawley rats weighing 300-600 g. Epididymal fat depots are resected from halothane anesthetized rats under aseptic conditions and adipocytes are isolated by collagenase digestion by the Rodbell method (Rodbell M. Metabolism of isolated fat cells. I. Effects of hormones on glucose metabolism and lipolysis. J Biol Chem. 1964; 239: 375-380), with minor modifications as previously described (Mueller W M, Gregoire F M, Stanhope K L, Mobbs C V, Mizuno T M, Warden C H, Stem J S, Havel P J. Evidence that glucose metabolism regulates leptin secretion from isolated adipocytes. Endocrinology 139: 551-558, 1998; Mueller W M, Stanhope K L, Gregoire F, Evans J L, Havel P J. Effects of metformin and vanadium on leptin secretion from cultured rat adipocytes. Obesity Res. 8: 530-539, 2000; Medina E A, Stanhope K L, Mizuno T M, Mobbs C V, Gregoire F, Hubbard N E, Erickson K L, Havel P J. Effects of tumor necrosis factor alpha on leptin secretion and gene expression: relationship to changes of glucose metabolism in isolated rat adipocytes. Int J Obes Relat Metab Disord. 23: 896-903, 1999.). The isolated adipocytes are then incubated for 30 minutes at 37 C before being plated and cultured on Matrigel-coated plates.
(§2) Adipocyte Culture: Adipocytes are maintained in culture anchored to a basement membrane matrix (Matrigel, Becton Dickinson, Franklin Lakes, N.J.) or collagen from Cohesion Technologies, (Palo Alto, Calif.). Although all in vitro systems have inherent advantages and disadvantages, advantages of this system compared with cultures containing free-floating adipocytes are that the matrix simulates their normal basement membrane attachment and that the cells are maintained in close proximity to each other, allowing direct cell to cell contact. Together the cell contact and basement membrane attachment help to maintain differentiation, since adipocytes have a strong tendency to dedifferentiate in long-term (>24 h) culture. In addition, the matrix and the small amount of serum in the media both contain growth factors, which are also likely to help in maintaining cell differentiation. Furthermore, the adipocytes in this system are not exposed to toxic levels of oxygen at the interface of the media and the incubator atmosphere, as opposed to free-floating adipocytes which aggregate at the surface of the media. An advantage of the system over those containing minced adipose tissue is that all of the cells in the culture are equally exposed to the nutrients and the oxygen dissolved in the media. Thus, although clearly different from the in vivo situation, this system provides a more physiological environment than most systems for maintaining adipocytes in long-term culture.
(§3) In culturing each suspension, Matrigel is first thawed on ice to a liquid and uniformly applied to the surface of culture dishes (300 μl Matrigel/35 mm well). After the incubation period, 150 μl of the adipocyte suspension (2:1 ratio of packed cells to media) are plated on the Matrigel or collagen matrix. Adipocytes from each suspension are thoroughly mixed with a transfer pipette before plating to insure that a similar number adipocytes with a similar size distribution are added to the control and experimental wells for each suspension. The warmth of the added cells and buffer causes the Matrigel to gel around the adipocytes, or the neutralization of the acidic pH of the collagen solution to 7.0 solidifies the collagen, and both of these techniques effectively anchor the adipocytes to the culture dish. After a 30 minute incubation at 37° C., 2 ml of warm culture medium is added. The cells are maintained in an incubator at 37° C. for 96 hours with 6% CO2. Aliquots of adipocytes from each animal are divided into wells, with the different concentrations of insulin or other agents to be tested. In each plate an appropriate control well contains adipocytes from the same animal. […]

leptin promoter = test: Leptin promoter luciferase construct transfected into 3T3-L1 cells
isolated rat adipocytes [3] = test: Glucose utilization (uptake) by isolated cultured rat adipocytes; conditions: for effect on glucose utilization (in words): insulin 0.16 to 1.6 nM
Procedure: as §1, §2, §3

isolated rat adipocytes [4] = test: Leptin secretion/production by isolated cultured rat adipocytes (RIA)
Procedure: as §1, §2, §3

[5] = DTNB 100 μM, NEM 0.1 μM, DCA 2 mM
[6] = DTNB 100.0 μM + insulin 0.48 nM vs control (insulin only)
[7] = DTNB 100.0 μM + insulin 0.48 nM, isolated rat adipocytes, 96 h culture

insulin
effect on proportional incorporation of glucose into triglyceride (in words) (isolated rat adipocytes [1]; insulin 0.16 to 1.6 nM, listed as Insulin): does not affect; also recorded: does not alter
effect on proportion of glucose converted to lactate (in words) (isolated rat adipocytes [2]; insulin 0.16 to 1.6 nM): decreases
effect on proportion of glucose not converted to lactate or triglyceride (OTHER), by subtraction (in words) (isolated rat adipocytes [2]; insulin 0.16 to 1.6 nM): increases
effect on activity of control plasmid (in words) (leptin promoter; insulin 10 nM, 2-DG 10 mg/dl): unaffected
increase of leptin promoter activity (leptin promoter; insulin 0.1 to 10 nM, n=2 each): 3-6 fold
effect on leptin promoter activity (in words) (leptin promoter; insulin 0.1 to 10 nM, 2-DG 10 mg/dl on basal and insulin-stimulated (10 nM) activity): increases
effect on glucose utilization (in words) (isolated rat adipocytes [3]): concentration dependent increase
effect on glucose utilization (in words) (isolated rat adipocytes [3]; listed as Insulin): increases
effect on leptin secretion (in words) (isolated rat adipocytes [4]; insulin 0.16 to 1.6 nM): concentration-dependent increases; also recorded: concentration dependent increase

O=C(O)c1cc(SSc2ccc([N+](=O)[O-])c(C(=O)O)c2)ccc1[N+](=O)[O-] [DTNB, 5,5′-Dithiobis(2-nitrobenzoate)]
effect on proportion of glucose incorporated into TG (in words) (isolated rat adipocytes [1]; [5]): without affecting
Change in Parameter: Glucose to Lactate (%) (isolated rat adipocytes [2]; [6]): −9.5 ± 1.0%
Change in Parameter: Lactate Produced (μg) over 96 h (isolated rat adipocytes [2]; [6]): -53 ± 25 µg
Glucose to Lactate (%) (isolated rat adipocytes [2]; [7]): 13.1 ± 1.4%
Lactate Produced (μg) over 96 h (isolated rat adipocytes [2]; [7]): 179 ± 22 µg
effect on glucose not converted to lactate or incorporated into TG (OTHER; glucose flux into oxidation), by subtraction (in words) (isolated rat adipocytes [2]; [5]): increased
effect on proportion of glucose anaerobically metabolized to lactate (in words) (isolated rat adipocytes [2]; [5]): decreased
effect on lactate production (in words) (isolated rat adipocytes [2]; DTNB 100 μM, NEM 0.1 μM, DCA 0.1 to 5.0 mM): without any increase
Change in Parameter: Glucose Uptake (μg) over 96 h (isolated rat adipocytes [3]; [6]): +348 ± 114 μg
Glucose Uptake (μg) over 96 h (isolated rat adipocytes [3]; [7]): 1384 ± 94 µg
effect on total / insulin-mediated glucose utilization (in words) (isolated rat adipocytes [3]; [5]): increased
% ΔLeptin Produced over 96 h (isolated rat adipocytes [4]; [6]): +57.3 ± 5.8%
% Δ[Leptin] (ng/ml) at 96 h (isolated rat adipocytes [4]; [6]): +60.2 ± 8.3%
Change in Parameter: Leptin (ng) Produced over 96 h (isolated rat adipocytes [4]; [6]): +18.4 ± 2.3 ng
Change in Parameter: [Leptin] (ng/ml) at 96 h (isolated rat adipocytes [4]; [6]): +6.3 ± 0.8 ng/ml
Leptin (ng) Produced over 96 h (isolated rat adipocytes [4]; [7]): 55.6 ± 2.9 ng
[Leptin] (ng/ml) at 96 h (isolated rat adipocytes [4]; [7]): 17.2 ± 0.9 ng/mL
effect on leptin production/secretion (in words) (isolated rat adipocytes [4]; PDH kinase inhibitors DTNB, NEM, DCA, cultured adipocytes): most potent stimulator; also recorded: increase
increase of leptin production/secretion (isolated rat adipocytes [4]; PDH kinase inhibitors vs control: DTNB 100 μM, NEM 0.1 μM, DCA 2 mM, cultured adipocytes): approximately 60%

Reference: patent US20070203225A1, “METHOD OF INCREASING ENDOGENOUS ADIPONECTIN PRODUCTION AND LEPTIN PRODUCTION” (priority 2001, published 2007)
